Data published in the NIST ThermoML archive (doi:10.1016/j.jct.2013.10.031).
± gives the expanded uncertainty stated by the source.

Assay: wn = mass fraction of the nth substance listed
Conditions: Gas, Burnett expansion method

FCC(F)(F)F [1,1,1,2-tetrafluoroethane] + CCC
Conditions | mass density [kg/m3]
291.04 K, 382.5 kPa, w2 = 0.6 | 9.6512 ± 0.55
291.04 K, 497.9 kPa, w2 = 0.6 | 12.8332 ± 0.57
291.04 K, 818.1 kPa, w2 = 0.6 | 22.6914 ± 0.67
291.06 K, 178.7 kPa, w2 = 0.65 | 4.1993 ± 0.49
291.06 K, 235.4 kPa, w2 = 0.65 | 5.5839 ± 0.5
291.06 K, 309.1 kPa, w2 = 0.65 | 7.425 ± 0.51
291.06 K, 404.2 kPa, w2 = 0.65 | 9.8733 ± 0.53
291.06 K, 525 kPa, w2 = 0.65 | 13.1287 ± 0.57
291.06 K, 642.6 kPa, w2 = 0.6 | 17.0639 ± 0.63
291.08 K, 675.9 kPa, w2 = 0.65 | 17.4564 ± 0.6
291.99 K, 927 kPa, w2 = 0.5 | 28.4165 ± 0.77
292 K, 732.8 kPa, w2 = 0.5 | 21.3324 ± 0.72
292.01 K, 193.1 kPa, w2 = 0.5 | 5.0866 ± 0.55
292.01 K, 254.3 kPa, w2 = 0.5 | 6.7756 ± 0.56
292.01 K, 334.3 kPa, w2 = 0.5 | 9.02529 ± 0.58
292.01 K, 437.9 kPa, w2 = 0.5 | 12.0223 ± 0.6
292.01 K, 569.6 kPa, w2 = 0.5 | 16.0141 ± 0.64
292.03 K, 202.8 kPa, w2 = 0.4 | 5.83306 ± 0.61
292.03 K, 587.9 kPa, w2 = 0.4 | 18.3639 ± 0.73
292.03 K, 753.1 kPa, w2 = 0.4 | 24.4617 ± 0.81
292.03 K, 950.3 kPa, w2 = 0.4 | 32.5844 ± 0.86
292.04 K, 266.5 kPa, w2 = 0.4 | 7.76977 ± 0.62
292.04 K, 348.8 kPa, w2 = 0.4 | 10.3497 ± 0.65
292.04 K, 454.4 kPa, w2 = 0.4 | 13.7862 ± 0.68
292.1 K, 669.6 kPa, w2 = 0.45 | 20.2125 ± 0.72
292.1 K, 852.9 kPa, w2 = 0.45 | 26.9241 ± 0.77
292.11 K, 399.4 kPa, w2 = 0.45 | 11.3911 ± 0.63
292.11 K, 519.4 kPa, w2 = 0.45 | 15.1737 ± 0.67
292.12 K, 176.3 kPa, w2 = 0.45 | 4.81956 ± 0.57
292.12 K, 232.3 kPa, w2 = 0.45 | 6.41979 ± 0.58
292.12 K, 305.2 kPa, w2 = 0.45 | 8.55159 ± 0.6
295.06 K, 496 kPa, w2 = 0.6 | 12.529 ± 0.56
295.06 K, 537 kPa, w2 = 0.55 | 14.2738 ± 0.6
295.06 K, 692.2 kPa, w2 = 0.55 | 18.98 ± 0.66
295.06 K, 881.4 kPa, w2 = 0.55 | 25.2378 ± 0.7
295.07 K, 315.8 kPa, w2 = 0.55 | 8.0723 ± 0.54
295.07 K, 641.4 kPa, w2 = 0.6 | 16.6596 ± 0.61
295.07 K, 820 kPa, w2 = 0.6 | 22.1527 ± 0.65
295.08 K, 167 kPa, w2 = 0.6 | 4.0072 ± 0.49
295.08 K, 220.6 kPa, w2 = 0.6 | 5.3286 ± 0.5
295.08 K, 240.3 kPa, w2 = 0.55 | 6.0706 ± 0.53
295.08 K, 380.5 kPa, w2 = 0.6 | 9.4217 ± 0.53
295.08 K, 413.2 kPa, w2 = 0.55 | 10.7336 ± 0.57
295.08 K, 929.7 kPa, w2 = 0.65 | 25.1362 ± 0.67
295.09 K, 290.3 kPa, w2 = 0.6 | 7.0853 ± 0.51
295.09 K, 571.2 kPa, w2 = 0.65 | 14.2158 ± 0.57
295.09 K, 733.9 kPa, w2 = 0.65 | 18.9032 ± 0.63
295.1 K, 440.4 kPa, w2 = 0.65 | 10.6904 ± 0.54
295.11 K, 337.1 kPa, w2 = 0.65 | 8.0394 ± 0.51
295.12 K, 195 kPa, w2 = 0.65 | 4.5466 ± 0.49
295.12 K, 256.9 kPa, w2 = 0.65 | 6.0457 ± 0.49
296.03 K, 914.3 kPa, w2 = 0.45 | 28.6491 ± 0.77
296.04 K, 429.5 kPa, w2 = 0.45 | 12.1212 ± 0.62
296.04 K, 558.2 kPa, w2 = 0.45 | 16.146 ± 0.66
296.04 K, 718.9 kPa, w2 = 0.45 | 21.5073 ± 0.73
296.05 K, 189.8 kPa, w2 = 0.45 | 5.12847 ± 0.56
296.05 K, 250.1 kPa, w2 = 0.45 | 6.83136 ± 0.58
296.05 K, 328.4 kPa, w2 = 0.45 | 9.09958 ± 0.59
296.06 K, 874.4 kPa, w2 = 0.5 | 25.9625 ± 0.72
296.07 K, 179.9 kPa, w2 = 0.5 | 4.64758 ± 0.54
296.07 K, 236.8 kPa, w2 = 0.5 | 6.1908 ± 0.55
296.07 K, 407 kPa, w2 = 0.5 | 10.9846 ± 0.58
296.07 K, 529.9 kPa, w2 = 0.5 | 14.6321 ± 0.62
296.07 K, 684.5 kPa, w2 = 0.5 | 19.4905 ± 0.68
296.15 K, 854.3 kPa, w2 = 0.4 | 27.6875 ± 0.83
296.15 K, 1071.2 kPa, w2 = 0.4 | 36.8808 ± 0.9
296.16 K, 518.5 kPa, w2 = 0.4 | 15.6041 ± 0.68
296.16 K, 669.4 kPa, w2 = 0.4 | 20.7854 ± 0.74
296.17 K, 231.5 kPa, w2 = 0.4 | 6.60203 ± 0.6
296.17 K, 304.4 kPa, w2 = 0.4 | 8.79413 ± 0.62
296.17 K, 398.4 kPa, w2 = 0.4 | 11.7141 ± 0.64
297.08 K, 311 kPa, w2 = 0.5 | 8.24631 ± 0.56
299.03 K, 1039.9 kPa, w2 = 0.55 | 30.269 ± 0.74
299.04 K, 190.4 kPa, w2 = 0.6 | 4.5212 ± 0.49
299.04 K, 220.4 kPa, w2 = 0.55 | 5.4755 ± 0.52
299.04 K, 251 kPa, w2 = 0.6 | 6.0118 ± 0.5
